# Laboratory results: paper PMC3953729 (FEBS Open Bio, 2014)
# What was measured:
# [1] = target: cyclohexanone monooxygenase (CHMO) (Acinetobacter johnsonii, UniProt P12015); assay: FAD absorbance change on titration; type: binding
# [2] = target: cyclohexanone monooxygenase (CHMO) (Acinetobacter johnsonii, UniProt P12015, L323C/A325C); conditions: oxidised enzyme, engineered disulfide formed
smiles,measurement,setting,value
NC(=O)c1ccc[n+]([C@@H]2O[C@H](COP(=O)(O)OP(=O)(O)OC[C@H]3O[C@@H](n4cnc5c(N)ncnc54)[C@H](OP(=O)(O)O)[C@@H]3O)[C@@H](O)[C@H]2O)c1 [NADP^+],Kd,[1],28 µM
same,Kd,[2],15 µM
